Test results from patent US6534524B1, “Indazole compounds and pharmaceutical compositions for inhibiting protein kinases, and methods for their use” (Agouron Pharmaceuticals, Inc., priority 1999, dated 2003).
pKi: −log10 of the molar value. Where two headings read alike, the source gives them in different places.

Key:
human CHK1 (FL-CHK1) = target: T1, human CHK1 (FL-CHK1) (Homo sapiens, UniProt O14757); assay: CHK1 assay (coupled spectrophotometric, Syntide-2); assay type: biochemical; conditions: for CHK-1 @ 20 μM: Table 4, compound at 20 μM; for pKi: read-out: CHK-1 Ki
T1 construct: C-terminally His-tagged full-length human CHK1 (FL-CHK1); made in house; host or cells: baculovirus/insect cell system
T1 sequence (O14757 1-476): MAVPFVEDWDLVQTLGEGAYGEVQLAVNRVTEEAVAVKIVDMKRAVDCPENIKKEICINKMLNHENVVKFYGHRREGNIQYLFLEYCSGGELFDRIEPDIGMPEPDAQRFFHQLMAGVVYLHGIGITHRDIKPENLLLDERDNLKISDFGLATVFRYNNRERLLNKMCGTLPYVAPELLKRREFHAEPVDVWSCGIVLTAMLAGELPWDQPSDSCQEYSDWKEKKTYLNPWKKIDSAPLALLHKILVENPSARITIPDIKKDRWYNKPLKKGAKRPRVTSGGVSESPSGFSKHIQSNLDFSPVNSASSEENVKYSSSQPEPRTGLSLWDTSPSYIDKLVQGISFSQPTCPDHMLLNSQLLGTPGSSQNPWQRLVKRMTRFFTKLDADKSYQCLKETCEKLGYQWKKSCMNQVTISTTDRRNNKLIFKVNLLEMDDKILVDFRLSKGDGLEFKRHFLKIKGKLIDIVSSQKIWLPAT
Excerpt: CHK1 Construct for Assay: C-terminally His-tagged full-length human CHK1 (FL-CHK1) was expressed using the baculovirus/insect cell system. […] The protein was purified by conventional chromatographic techniques.
The production of ADP from ATP that accompanies phosphoryl transfer to the synthetic substrate peptide Syntide-2 ([…]) was coupled to oxidation of NADH using phosphoenolpyruvate (PEP) through the actions of pyruvate kinase (PK) and lactic dehydrogenase (LDH). The oxidation of NADH was monitored by following the decrease of absorbance at 340 nm (ε340=6.22 cm^−1 mM^−1) using a HP8452 spectrophotometer. […] Assays were initiated with 10 nM of FL-CHK1. Ki values were determined by measuring initial enzyme activity in the presence of varying concentrations of test compounds. The data were analyzed using Enzyme Kinetic and Kaleidagraph software.

[1] = Human liver microsome (HLM) assay; assay type: in vitro ADME; conditions: human liver microsomes, 5 μM test compound
In short: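 Compound metabolism in human liver microsomes measured in triplicate. Samples at 0 and 2 h centrifuged at 14000 g for 10 min and analysed by LC-MS.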

[2] = Determination of inhibitor concentration in mouse plasma after intraperitoneal and oral dosing; assay type: in vivo; conditions: for concentration at 7 h: female
In short: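 Mice dosed intraperitoneally or orally; blood taken by ocular bleed at 0.5, 1 and 4 h and by intracardiac puncture at 7 h. Plasma extracted with ethyl acetate after internal standard and NaOH addition, analysed by HPLC or LC-MS against a mouse-plasma standard curve.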

[3] = target: unphosphorylated VEGF-R2Δ50 (FLVK) (Homo sapiens, UniProt P35968, DEL940-989/E990V); assay: VEGF-R2 coupled spectrophotometric assay, unphosphorylated VEGF-R2Δ50 (FLVK); conditions: FLVK Ki, Table 1
Sequence of unphosphorylated VEGF-R2Δ50 (FLVK) (P35968 with tags, fused parts or gaps DEL940-989/E990V limits assumed): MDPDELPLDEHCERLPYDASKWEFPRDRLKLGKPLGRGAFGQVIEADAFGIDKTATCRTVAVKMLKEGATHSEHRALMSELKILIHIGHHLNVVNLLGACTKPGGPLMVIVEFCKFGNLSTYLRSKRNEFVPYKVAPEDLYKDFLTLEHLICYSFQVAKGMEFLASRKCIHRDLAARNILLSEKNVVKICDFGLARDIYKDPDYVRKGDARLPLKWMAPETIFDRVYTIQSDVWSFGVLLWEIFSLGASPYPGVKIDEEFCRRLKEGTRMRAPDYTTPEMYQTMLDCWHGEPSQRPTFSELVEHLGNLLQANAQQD

[4] = IP, 25 mg/kg, vehicle PEG400:H2O pH 2.3 60:40
[5] = PO, 50 mg/kg, vehicle PEG400:H2O pH 2.3 60:40
[6] = IP, 25 mg/kg, vehicle PEG400:H2O pH 2.3 30:70
[7] = PO, 50 mg/kg, vehicle PEG400:H2O pH 2.3 30:70
[8] = IP, 25 mg/kg, vehicle PEG400:H2O pH 2.3 30:70, read-out: Cmin (7 hr conc.)
[9] = PO, 50 mg/kg, vehicle PEG400:H2O pH 2.3 30:70, read-out: Cmin (7 hr conc.)

## O=C(Nc1cc(O)[nH]n1)c1ccc2c(-c3nc4ccccc4[nH]3)n[nH]c2c1
Human CHK1 (FL-CHK1)
  CHK-1 @ 20 μM: 38.6

## Fc1cccc(F)c1/C=C/c1n[nH]c2cc(-c3ccncc3)ccc12 [Example 29(o), 6-Pyrid-4-yl-3-E-[2-(2,6-difluorophenyl)ethenyl]-1H-indazole]
Human CHK1 (FL-CHK1); Table 3
  pKi: 4.34

## O=C(Nc1cc[nH]n1)c1ccc2c(-c3nc4ccccc4[nH]3)n[nH]c2c1
Human CHK1 (FL-CHK1)
  CHK-1 @ 20 μM: 52.4

## COC(=O)c1cc(NC(=O)c2ccc3c(-c4nc5ccccc5[nH]4)n[nH]c3c2)ccc1O [drawing 1260]
Human CHK1 (FL-CHK1)
  CHK-1 @ 20 μM: 31.6

## O=C(Nc1ccc(O)cc1)c1ccc2c(-c3nc4cc5ccccc5cc4[nH]3)n[nH]c2c1 [Example 54(d), 3-[1H-Naphtho(2,3-d)imidazol-2-yl]-N-(4-hydroxyphenyl)-1H-indazole-6-carboxamide]
Human CHK1 (FL-CHK1); Table 3
  pKi: 6.17

## Fc1cc(F)cc(/C=C/c2n[nH]c3cc(-c4ccncc4)ccc23)c1 [Example 29(m), 6-Pyrid-4-yl-3-E-[2-(3,5-difluorophenyl)ethenyl]-1H-indazole]
Human CHK1 (FL-CHK1); Table 3
  pKi: 6.00

## O=C(Nc1ccc(O)cc1)c1ccc2c(-c3nc4cc(Cl)c(Cl)cc4[nH]3)n[nH]c2c1 [Example 54(b), 3-(5,6-Dichloro-1H-benzoimidazol-2-yl)-N-(4-hydroxyphenyl)-1H-indazole-6-carboxamide]
Human CHK1 (FL-CHK1); Table 3
  pKi: 5.51

## O=C(NC1CCS(=O)(=O)C1)c1ccc2c(-c3nc4ccccc4[nH]3)n[nH]c2c1 (stereo not drawn) [drawing 1226]
Human CHK1 (FL-CHK1)
  CHK-1 @ 20 μM: 24.2

## c1ccc2[nH]c(-c3n[nH]c4cc(-c5ccncc5)ccc34)nc2c1 [Example 55, 3-1H-Benzoimidazol-2-yl-6-pyridin-4-yl-1H-indazole]
Human CHK1 (FL-CHK1); Table 3
  pKi: 5.00

## Cc1nc(/C=C/c2n[nH]c3cc(-c4ccncc4)ccc23)cs1 [29(j), 6-Pyrid-4-yl-3-E-[2-(2-methylthiazol-4-yl)ethenyl]-1H-indazole]
Human CHK1 (FL-CHK1); Table 3
  pKi: 6.27

## COc1ccc(-c2ccc3c(/C=C/c4ccccc4)n[nH]c3c2)cn1 [Example 27(k), 6-(2-Methoxypyridin-5-yl)-3-E-styryl-1H-indazole]
Human CHK1 (FL-CHK1); Table 3
  pKi: 4.62

## C(=C\c1n[nH]c2cc(-c3ccncc3)ccc12)/c1ccc(-c2ccccc2)cc1 [Example 29(d), 6-Pyrid-4-yl-3-E-[2-(biphenyl-4-yl)ethenyl]-1H-indazole]
Human CHK1 (FL-CHK1); Table 3
  pKi: 5.00

## C=CCC(NC(=O)c1ccc2c(-c3nc4ccccc4[nH]3)n[nH]c2c1)c1ccccn1 (stereo not drawn) [drawing 1259]
Human CHK1 (FL-CHK1)
  CHK-1 @ 20 μM: 24.1

## O=C(Nc1cnccn1)c1ccc2c(-c3nc4ccccc4[nH]3)n[nH]c2c1 [drawing 1245]
Human CHK1 (FL-CHK1)
  CHK-1 @ 20 μM: 36.3

## O=C(NC1CC1)c1ccc2c(-c3nc4ccccc4[nH]3)n[nH]c2c1 [Example 53(b), 3-(1H-Benzoimidazol-2-yl)-N-cyclopropyl-1H-indazole-6-carboxamide]
Human CHK1 (FL-CHK1); Table 3
  pKi: 5.85

## O=C(Nc1cccc(C(=O)c2ccc3c(/C=C/c4ccccc4)n[nH]c3c2)c1)c1ccncc1 [Example 19(j), 6-[3-(Pyridin-4-ylcarboxamido)benzoyl]-3-E-styryl-1H-indazole]
[1]
  % remain (HLM, 2 h): 66%
[2]; [4]
  AUClast: 23205 ng·h/mL
  Cmax: 5764 ng/mL
  plasma half-life (T1/2): 1.6 h
[2]; [5]
  AUClast: 5889 ng·h/mL
  Cmax: 1937 ng/mL
  plasma half-life (T1/2): 1.2 h
[2]; IP, 25 mg/kg, vehicle PEG400:H2O pH 2.3 60:40, read-out: Cmin (7 hr conc.)
  concentration at 7 h: 456 ng/mL
[2]; PO, 50 mg/kg, vehicle PEG400:H2O pH 2.3 60:40, read-out: Cmin (7 hr conc.)
  concentration at 7 h: 63 ng/mL
[3]
  pKi: 9.48

## O=C(c1ccccc1)c1ccc2c(/C=C/c3ccccc3)n[nH]c2c1 [Example 17, Phenyl-(3-styryl-1H-indazol-6-yl)-methanone]
Human CHK1 (FL-CHK1); Table 1
  pKi: 6.27

## O=C(Nc1ccccc1)c1ccccc1Sc1ccc2c(/C=C/c3ccccn3)n[nH]c2c1 [Example 33(c), 6-[2-(Phenylcarbamoyl)phenylsulfanyl]-3-E-[2-(pyridin-2-yl)ethenyl]-1H-indazole]
[1]
  % remain (HLM, 2 h): 16%
[2]; [6]
  AUClast: 697 ng·h/mL
  Cmax: 505 ng/mL
  plasma half-life (T1/2): 1.2 h
[2]; [7]
  AUClast: 183 ng·h/mL
  Cmax: 94 ng/mL
  plasma half-life (T1/2): 3.0 h
[2]; [8]
  concentration at 7 h: 7 ng/mL
[2]; [9]
  concentration at 7 h: 5 ng/mL
[3]
  pKi: 9.55

## C(=C\c1n[nH]c2cc(-c3ccncc3)ccc12)/c1cccc(-c2ccccc2)c1 [Example 29(n), 6-Pyrid-4-yl-3-E-[2-(biphenyl-3-yl)ethenyl]-1H-indazole]
Human CHK1 (FL-CHK1); Table 3
  pKi: 4.80

## COC(=O)c1ccc(NC(=O)c2ccc3c(-c4nc5ccccc5[nH]4)n[nH]c3c2)o1 [drawing 1258]
Human CHK1 (FL-CHK1)
  CHK-1 @ 20 μM: 42.9

## O=C(Nc1ccc(O)cc1)c1ccc2c(-c3nc4cc(C(F)(F)F)ccc4[nH]3)n[nH]c2c1 [Example 54(h), 3-(5-Trifluoromethyl-1H-benzoimidazol-2-yl)-N-(4-hydroxyphenyl)-1H-indazole-6-carboxamide]
Human CHK1 (FL-CHK1); Table 3
  pKi: 6.00

## O=C(Nc1ncnc2[nH]cnc12)c1ccc2c(-c3nc4ccccc4[nH]3)n[nH]c2c1 [drawing 1250]
Human CHK1 (FL-CHK1)
  CHK-1 @ 20 μM: 38.6

## O=C(Nc1ccc2[nH]c(=O)[nH]c2c1)c1ccc2c(-c3nc4ccccc4[nH]3)n[nH]c2c1 [drawing 1232]
Human CHK1 (FL-CHK1)
  CHK-1 @ 20 μM: 32.3

## O=C(Nc1ccc(O)cc1)c1ccc2c(-c3nc4cc(Cl)ccc4[nH]3)n[nH]c2c1 [Example 54(l), 3-(5-Chloro-1H-benzoimidazol-2-yl)-N-(4-hydroxyphenyl)-1H-indazole-6-carboxamide]
Human CHK1 (FL-CHK1); Table 3
  pKi: 6.00

## COc1ccc(NC(=O)c2ccc3c(-c4nc5ccccc5[nH]4)n[nH]c3c2)cc1O [drawing 1257]
Human CHK1 (FL-CHK1)
  CHK-1 @ 20 μM: 32.3

## O=C(NC1CC1)c1ccccc1Sc1ccc2c(/C=C/c3ccccn3)n[nH]c2c1 [Example 33(e), 6-[2-(Cyclopropylcarbamoyl)phenylsulfanyl]-3-E-[2-(pyridin-2-yl)ethenyl]-1H-1H-indazole]
[1]
  % remain (HLM, 2 h): 54%
[2]; [6]
  AUClast: 14323 ng·h/mL
  plasma half-life (T1/2): 1.0 h
[2]; [7]
  AUClast: 13290 ng·h/mL
  plasma half-life (T1/2): 0.7 h
[2]; [8]
  concentration at 7 h: 94 ng/mL
[2]; [9]
  concentration at 7 h: 12 ng/mL
[3]
  pKi: 8.77

## Cc1ccc2[nH]c(-c3n[nH]c4cc(C(=O)Nc5ccc(O)cc5)ccc34)nc2c1C [Example 54(f), 3-(4,5-Dimethyl-1H-benzoimidazol-2-yl)-N-(4-hydroxyphenyl)-1H-indazole-6-carboxamide]
Human CHK1 (FL-CHK1); Table 3
  pKi: 5.54

## Oc1ccc(-c2ccc3c(/C=C/c4ccccc4)n[nH]c3c2)cc1 [Example 28(b)]
Human CHK1 (FL-CHK1); Table 3
  pKi: 7.84

## O=C(Nc1cccc(Oc2ccc3c(/C=C/c4ccccn4)n[nH]c3c2)c1)c1ccccc1 [Example 31(a), 6-[3-Benzamidophenoxy]-3-E-[2-(pyridin-2-yl)ethenyl]-1H-indazole]
[1]
  % remain (HLM, 2 h): 58%
[2]; [6]
  AUClast: 47538 ng·h/mL
  Cmax: 13018 ng/mL
  plasma half-life (T1/2): 2.4 h
[2]; [7]
  AUClast: 40863 ng·h/mL
  Cmax: 14499 ng/mL
  plasma half-life (T1/2): 1.6 h
[2]; [8]
  concentration at 7 h: 1910 ng/mL
[2]; [9]
  concentration at 7 h: 834 ng/mL
[3]
  pKi: 9.54

## Oc1ccc(-c2ccc3c(/C=C/c4ccccc4)n[nH]c3c2)cc1O [Example 28(d), 6-(3,4-Dihydroxyphenyl)-3-E-styryl-1H-indazole]
Human CHK1 (FL-CHK1); Table 3
  pKi: 7.74

## O=C(Nc1ccc(O)c(F)c1)c1ccc2c(-c3nc4ccccc4[nH]3)n[nH]c2c1 [Example 53(g), 3-(1H-Benzoimidazol-2-yl)-N-(3-fluoro-4-hydroxyphenyl)-1H-indazole-6-carboxamide]
Human CHK1 (FL-CHK1); Table 3
  pKi: 5.82

## Cc1cc(C(=O)Nc2cccc(C(=O)c3ccc4c(/C=C/c5ccccn5)n[nH]c4c3)c2)on1 [Example 41(m), 6-[3-((3-Methylisoxazol-5-yl)carboxamido)benzoyl]-3-E-[2-(pyridin-2-yl)ethenyl]-1H-indazole]
[1]
  % remain (HLM, 2 h): 0%
[2]; [6]
  AUClast: 1864 ng·h/mL
  plasma half-life (T1/2): 2.3 h
[2]; [7]
  AUClast: 9 ng·h/mL
  Cmax: 5 ng/mL
  plasma half-life (T1/2): blq
[3]
  pKi: 9.12
